Experimental data: PMC1660542, “Structure-based discovery of inhibitors of the YycG histidine kinase: New chemical leads to combat Staphylococcus epidermidis infections” (BMC Microbiology, 2006)

Columns and labels:
S. epidermidis RP62A = test: MIC assay (broth dilution in tubes, CLSI); assay type: cell-based; settings: Staphylococcus epidermidis; S. epidermidis RP62A (biofilm-forming strain); read-out: Minimal inhibitory concentration (MIC)
Description: (§1) Staphylococcus epidermidis ATCC12228 and RP62A strains were purchased from the American Type Culture Collection (ATCC, Manassas, USA). Staphylococcus aureus ATCC29213, Escherichia coli ATCC25922 and Pseudomonas aeruginosa ATCC27853 were kindly provided by Dr. Bijie Hu at Zhongshan Hospital (Shanghai, China). S. epidermidis strains se527, se886, se847, seG203, Streptococcus pyogenes strain 144, and Streptococcus mutans strain 128 were all clinical isolates from Zhongshan Hospital and Huashan Hospital (Shanghai, China). If not stated otherwise, S. epidermidis and S. aureus strains were grown at 37°C in tryptic soy broth (TSB, Oxoid) containing 0.25% glucose, E. coli and P. aeruginosa strains were grown at 37°C in Luria-Bertani (LB, Oxoid).
(§2) MIC assays for the antibacterial activities of the compounds were performed according to the broth micro-dilution (in tubes) method of the Clinical and Laboratory Standards Institute (CLSI) of America. The Minimal Bactericidal Concentration (MBC) was obtained by subculturing 100 μl from each negative (no visible bacterial growth) tube from the MIC assay, onto substance-free Mueller-Hinton agar plates. The plates were incubated at 37°C for 24 hours, and the MBC was defined as the lowest concentration of substance which produced subcultures growing no more than five colonies on each plate.

S. mutans 128 = test: MIC assay (broth dilution in tubes, CLSI); assay type: cell-based, Streptococcus mutans; settings: Streptococcus mutans; S. mutans 128; read-out: Minimal inhibitory concentration (MIC)
Description: as §1, §2

YycG' protein = biological target: T1, YycG' protein (Staphylococcus epidermidis, UniProt Q8CU87); test: Inhibition of YycG' ATPase activity / autophosphorylation (Kinase-Glo Luminescent Kinase Assay); assay type: biochemical; settings: 3 μM ATP
T1 construct: of YycG (370aa to 610aa) was amplified by PCR; His-tag (pET28a) (N); made in house; host or cells: E. coli BL21 (pET28a, pETYycG')
Method: The inhibitory activities of the compounds for the ATPase activity of the YycG' protein was measured using the Kinase-Glo™ Luminescent Kinase Assay (Promega, Madison, USA). Briefly, 4 μg YycG' protein was pre-incubated with a series of dilution of compounds in the reaction buffer (40 mM Tris [pH 7.5], 20 mM MgCl2, and 0.1 mg/ml BSA), at 25°C for 30 min. Then 3 μM ATP was added for another incubation of 30 min at 25°C, and Kinase-Glo™ Reagent was added to detect the rest amount of ATP, as recorded from luminescence measurements (RLU). In parallel, theYycG' protein with no addition of compounds was used as the control. The rate of inhibiting protein phosphorylation (Rp) by the compounds was calculated from equation 1:
Rp=RLU(YycG^′+compound+ATP+Reagent)−RLU(YycG^′+ATP+Reagent)/RLU(ATP+Reagent)−RLU(YycG^′+ATP+Reagent)×100% (1) MathType@MTEF@5@5@+=feaafiart1ev1aaatCvAUfKttLearuWrP9MDH5MBPbIqV92AaeXatLxBI9gBaebbnrfifHhDYfgasaacH8akY=wiFfYdH8Gipec8Eeeu0xXdbba9frFj0=OqFfea0dXdd9vqai=hGuQ8kuc9pgc9s8qqaq=dirpe0xb9q8qiLsFr0=vr0=vr0dc8meaabaqaciaacaGaaeqabaqabeGadaaakeaacqqGsbGudaWgaaWcbaGaeeiCaahabeaakiabg2da9maalaaabaGaeeOuaiLaeeitaWKaeeyvauLaeiikaGIaeeywaKLaeeyEaKNaee4yamMafe4raCKbauaacqGHRaWkcqqGJbWycqqGVbWBcqqGTbqBcqqGWbaCcqqGVbWBcqqG1bqDcqqGUbGBcqqGKbazcqGHRaWkcqqGbbqqcqqGubavcqqGqbaucqGHRaWkcqqGsbGucqqGLbqzcqqGHbqycqqGNbWzcqqGLbqzcqqGUbGBcqqG0baDcqGGPaqkcqGHsislcqqGsbGucqqGmbatcqqGvbqvcqGGOaakcqqGzbqwcqqG5bqEcqqGJbWycuqGhbWrgaqbaiabgUcaRiabbgeabjabbsfaujabbcfaqjabgUcaRiabbkfasjabbwgaLjabbggaHjabbEgaNjabbwgaLjabb6gaUjabbsha0jabcMcaPaqaaiabbkfasjabbYeamjabbwfavjabcIcaOiabbgeabjabbsfaujabbcfaqjabgUcaRiabbkfasjabbwgaLjabbggaHjabbEgaNjabbwgaLjabb6gaUjabbsha0jabcMcaPiabgkHiTiabbkfasjabbYeamjabbwfavjabcIcaOiabbMfazjabbMha5jabbogaJjqbbEeahzaafaGaey4kaSIaeeyqaeKaeeivaqLaeeiuaaLaey4kaSIaeeOuaiLaeeyzauMaeeyyaeMaee4zaCMaeeyzauMaeeOBa4MaeeiDaqNaeiykaKcaaiabgEna0kabigdaXiabicdaWiabicdaWiabcwcaLiaaxMaacaWLjaWaaeWaaeaacqaIXaqmaiaawIcacaGLPaaaaaa@A46C@
IC50 (the concentration of inhibition of 50% YycG' protein autophosphorylation) was obtained by using the Origin v7.0 software (OriginLab, Northampton, USA).

T1 sequence (Q8CU87 370-610): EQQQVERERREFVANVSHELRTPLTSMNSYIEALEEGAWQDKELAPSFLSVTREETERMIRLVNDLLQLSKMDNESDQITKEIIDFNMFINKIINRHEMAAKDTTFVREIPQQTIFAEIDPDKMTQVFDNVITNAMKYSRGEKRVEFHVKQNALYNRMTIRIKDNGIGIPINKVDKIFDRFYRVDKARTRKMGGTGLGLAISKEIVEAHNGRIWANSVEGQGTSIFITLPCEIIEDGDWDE

For `Cc1ccc(NC(=O)CN2C(=O)S/C(=C\c3ccc(OCc4cccc(C(O)O)c4)cc3)C2=O)cc1` [Compound 7], the MIC (S. epidermidis RP62A) was > 200 µM, the MIC (S. mutans 128) was > 200 µM and the IC50 (YycG' protein; 4 μg YycG' protein, read-out: IC50 for YycG') was 6.5 µM. The inhibition at 50 µM (YycG' protein; compound 50 μM, 4 μg protein, read-out: Inhibition of YycG' phosphorylation (decrease of ATPase activity)) was 86%.
